The values below are quoted from earlier work in patent US8883408B2, “Tissue implants for implantation and methods of preparing the same” (CryoLife, Inc., priority 2010, dated 2014).

This series has as its system sensitive bacteria. To be noted: literature review.

As for `NCC[C@H](O)C(=O)N[C@@H]1C[C@H](N)[C@@H](O[C@H]2O[C@H](CN)[C@@H](O)[C@H](O)[C@H]2O)[C@H](O)[C@H]1O[C@H]1O[C@H](CO)[C@@H](O)[C@H](N)[C@H]1O` [amikacin], the “minimum inhibitory concentration against sensitive bacteria (MIC) range” value was 0.125 to 32 µg/mL.
